Data taken from patent US10961215B2, “N-aryl and N-heteroaryl piperidine derivatives as liver X receptor beta agonists, compositions, and their use” (Merck Sharp & Dohme Corp., priority 2016, dated 2021).

Legend:
[1] = biological target: T1, GST tagged LXRbeta LBD (ligand binding domain) (Homo sapiens, UniProt P55055); assay: LanthaScreen TR-FRET Liver X Receptor Coactivator Assay, LXR beta-LBD (co-activator recruitment; IP and % Emax relative to T0901317); assay type: biochemical; conditions: for EC50: Inflection Point of co-activator recruitment, LXR beta-LBD, TR-FRET; for Emax: efficacy at max dose in relation to reference T0901317, LXR beta-LBD, read-out: LXR beta actiivty at max dose (%)
T1 construct: purchased Invitrogen pv4658.pps
T1 sequence (P55055 222-460 limits assumed): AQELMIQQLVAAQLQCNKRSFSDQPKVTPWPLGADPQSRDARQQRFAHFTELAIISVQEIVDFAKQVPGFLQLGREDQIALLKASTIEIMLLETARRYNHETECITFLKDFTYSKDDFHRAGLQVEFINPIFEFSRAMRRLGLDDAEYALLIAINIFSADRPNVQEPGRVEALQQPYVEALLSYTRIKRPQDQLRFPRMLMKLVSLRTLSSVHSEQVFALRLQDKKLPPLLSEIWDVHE
Method in brief: (§1)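 Potency as inflection point and efficacy as Emax come from compound-driven coactivator peptide recruitment, scaled to T0901317, using a terbium/fluorescein TR-FRET format after room-temperature incubation.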

[2] = biological target: T2, GST tagged LXRalpha LBD (ligand binding domain) (Homo sapiens, UniProt Q13133); assay: LanthaScreen TR-FRET Liver X Receptor Coactivator Assay, LXR alpha-LBD (co-activator recruitment; IP and % Emax relative to T0901317); assay type: biochemical; conditions: for LXR alpha IP (nM) / EC50: Inflection Point of co-activator recruitment, LXR alpha-LBD, TR-FRET; for Emax: efficacy at max dose in relation to reference T0901317, LXR alpha-LBD, read-out: LXR alpha actiivty at max dose (%)
T2 construct: purchased Invitrogen pv4655
T2 sequence (Q13133 209-447 limits assumed): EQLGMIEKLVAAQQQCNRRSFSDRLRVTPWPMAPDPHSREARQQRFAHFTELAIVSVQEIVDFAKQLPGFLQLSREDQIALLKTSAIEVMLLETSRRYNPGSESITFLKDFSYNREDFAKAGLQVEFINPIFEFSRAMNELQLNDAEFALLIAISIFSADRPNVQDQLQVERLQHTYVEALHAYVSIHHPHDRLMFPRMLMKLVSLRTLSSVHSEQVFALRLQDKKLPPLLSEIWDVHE
Method in brief: as §1

| Structure (SMILES) | EC50 [1] [nM] | Emax [1] [%] | LXR alpha IP (nM) [2] | Emax [2] [%] | EC50 [2] [nM] |
| --- | --- | --- | --- | --- | --- |
| CNC(=O)c1ccc(N2CCC3(CC2)CC(CN(C)C(=O)[C@](O)(c2cccc(OC)c2)C(F)(F)F)C3)nc1Cl [Example 14-2, 2-chloro-N-methyl-6-(2-(((R)-3,3,3-trifluoro-2-hydroxy-2-(3-methoxyphenyl)-N-methylpropanamido)methyl)-7-azaspiro[3.5]nonan-7-yl)nicotinamide] | 473 | 30 | No IP | 8 | – |
| CCOc1cccc([C@@](O)(C(=O)N(C)C[C@@H]2C[C@@H]2C2CCN(c3ccc(C(=O)N(C)C)c(Cl)n3)CC2)C(F)(F)F)c1 [Example 15-1, 2-chloro-6-(4-((1R,2R)-2-(((R)-2-(3-ethoxyphenyl)-3,3,3-trifluoro-2-hydroxy-N-methylpropanamido)methyl)cyclopropyl)piperidin-1-yl)-N,N-dimethylnicotinamide] | 34 | 66 | No IP | 9 | – |
| COc1cccc([C@@](O)(C(=O)N(C)C[C@@H]2C[C@@H]2C2CCN(c3ccc(C(=O)N(C)C)c(Cl)n3)CC2)C(F)(F)F)c1 [Example 15-3, 2-chloro-N,N-dimethyl-6-(4-((1R,2R)-2-(((R)-3,3,3-trifluoro-2-hydroxy-2-(3-methoxyphenyl)-N-methylpropanamido)methyl)cyclopropyl)piperidin-1-yl)nicotinamide] | 17 | 58 | No IP | 10 | – |
| CN(C)C(=O)c1ccc(N2CCC([C@H]3C[C@H]3CN(C)C(=O)[C@](O)(c3cccc(OC(F)(F)F)c3)C(F)(F)F)CC2)nc1Cl [Example 15-4, 2-chloro-N,N-dimethyl-6-(4-((1R,2R)-2-(((R)-3,3,3-trifluoro-2-hydroxy-N-methyl-2-(3-(trifluoromethoxy)phenyl)propanamido)methyl)cyclopropyl)piperidin-1-yl)nicotinamide] | 23 | 50 | – | 15 | 623 |
| CN(C)C(=O)c1ccc(N2CCC([C@H]3C[C@H]3CN(C)C(=O)[C@](O)(c3cccc(C4CC4)c3)C(F)(F)F)CC2)nc1Cl [Example 15-5, 2-chloro-6-(4-((1R,2R)-2-(((R)-2-(3-cyclopropylphenyl)-3,3,3-trifluoro-2-hydroxy-N-methylpropanamido)methyl)cyclopropyl)piperidin-1-yl)-N,N-dimethylnicotinamide] | 16 | 75 | No IP | 18 | – |
| CN(C)C(=O)c1ccc(N2CCC([C@H]3C[C@H]3CN(C)C(=O)[C@](O)(c3cc(Cl)cc(Cl)c3)C(F)(F)F)CC2)nc1Cl [Example 15-6, 2-chloro-6-(4-((1R,2R)-2-(((R)-2-(3,5-dichlorophenyl)-3,3,3-trifluoro-2-hydroxy-N-methylpropanamido)methyl)cyclopropyl)piperidin-1-yl)-N,N-dimethylnicotinamdie] | 9 | 29 | No IP | 4 | – |
| CNC(=O)c1ccc(N2CCC([C@H]3C[C@H]3CNC(=O)[C@](O)(c3cccc(OC)c3)C(F)(F)F)CC2)nc1Cl [Example 15-11, 2-chloro-N-methyl-6-(4-((1R,2R)-2-(((R)-3,3,3-trifluoro-2-hydroxy-2-(3-methoxyphenyl)propanamido)methyl)cyclopropyl)piperidin-1-yl)nicotinamide] | 4440 | 36 | No IP | 1 | – |
| CN(C)C(=O)c1ccc(N2CCC([C@@H]3C[C@H]3CNC(=O)[C@@](O)(c3ccccc3)C(F)(F)F)CC2)nc1Cl [Example 15-13, 2-chloro-N,N-dimethyl-6-(4-((1S,2R)-2-(((S)-3,3,3-trifluoro-2-hydroxy-2-phenylpropanamido)methyl)cyclopropyl)piperidin-1-yl)nicotinamide] | 542 | 84 | No IP | 17 | – |
| CN(C)C(=O)c1ccc(N2CCC([C@@H]3C[C@H]3CNC(=O)[C@](O)(c3ccccc3)C(F)(F)F)CC2)nc1Cl [Example 15-14, 2-chloro-N,N-dimethyl-6-(4-((1S,2R)-2-(((R)-3,3,3-trifluoro-2-hydroxy-2-phenylpropanamido)methyl)cyclopropyl)piperidin-1-yl)nicotinamide] | 264 | 69 | No IP | 3 | – |
| CN(C)C(=O)c1ccc(N2CCC([C@@H]3C[C@H]3CN(C)C(=O)[C@](O)(c3ccccc3)C(F)(F)F)CC2)nc1Cl [Example 15-15] | 186 | 75 | – | 23 | 6070 |

Further lines, results first:

| EC50 [1] [nM] | Emax [1] [%] | LXR alpha IP (nM) [2] | Emax [2] [%] | EC50 [2] [nM] | Structure (SMILES) |
| --- | --- | --- | --- | --- | --- |
| 35 | 42 | No IP | 5 | – | COc1cccc([C@@](O)(C(=O)N(C)CC2CC3(CCN(c4ccc(C(=O)N(C)C)c(Cl)n4)CC3)C2)C(F)(F)F)c1 [Example 14-1, 2-chloro-N,N-dimethyl-6-(2-(((R)-3,3,3-trifluoro-2-hydroxy-2-(3-methoxyphenyl)-N-methylpropanamido)methyl)-7-azaspiro[3.5]nonan-7-yl)nicotinamide] |
| 10 | 64 | – | 25 | 289 | CN(C)C(=O)c1ccc(N2CCC([C@H]3C[C@H]3CN(C)C(=O)[C@](O)(c3ccccc3)C(F)(F)F)CC2)nc1Cl [Example 15-2, 2-chloro-N,N-dimethyl-6-(4-((1R,2R)-2-(((R)-3,3,3-trifluroo-2-hydroxy-N-methyl-2-phenylpropanamido)methyl)cyclopropyl)piperidin-1-yl)nicotinamide] |
| 26 | 53 | No IP | 11 | – | CN(C)C(=O)c1ccc(N2CCC([C@H]3C[C@H]3CN(C)C(=O)[C@](O)(c3cccc(C(F)(F)F)c3)C(F)(F)F)CC2)nc1Cl [Example 15-7, 2-chloro-N,N-dimethyl-6-(4-((1R,2R)-2-(((R)-3,3,3-trifluoro-2-hydroxy-N-methyl-2-(3-(trifluoromethyl)phenyl)rpropanamido)methyl)cyclopropyl)piperidin-1-yl)nicotinamide] |
| 74 | 59 | No IP | 0 | – | CN(C)C(=O)c1ccc(N2CCC([C@H]3C[C@H]3CN(C)C(=O)[C@](O)(c3cccc(OC4CC4)c3)C(F)(F)F)CC2)nc1Cl [Example 15-8, 2-chloro-6-(4-((1R,2R)-2-(((R)-2-(3-cyclopropoxyphenyl)-3,3,3-trifluoro-2-hydroxy-N-methylpropanamido)methyl)cyclopropyl)piperidin-1-yl)-N,N-dimethylnicotinamide] |
| 393 | 54 | – | 39 | 4220 | CN(C)C(=O)c1ccc(N2CCC([C@H]3C[C@H]3CNC(=O)[C@](O)(c3ccccc3)C(F)(F)F)CC2)nc1Cl [Example 15-9] |
| 442 | 38 | No IP | 4 | – | COc1cccc([C@@](O)(C(=O)NC[C@@H]2C[C@@H]2C2CCN(c3ccc(C(=O)N(C)C)c(Cl)n3)CC2)C(F)(F)F)c1 [Example 15-10, 2-chloro-N,N-dimethyl-6-(4-((1R,2R)-2-(((R)-3,3,3-trifluoro-2-hydroxy-2-(3-methoxyphenyl)propanamido)methyl)cyclopropyl)piperidin-1-yl)nicotinamide] |
| 1330 | 39 | – | 29 | 3780 | CNC(=O)c1ccc(N2CCC([C@H]3C[C@H]3CNC(=O)[C@](O)(c3ccccc3)C(F)(F)F)CC2)nc1Cl [Example 15-12, 2-chloro-N-methyl-6-(4-((1R,2R)-2-(((R)-3,3,3-trifluoro-2-hydroxy-2-phenylpropanamido)methyl)cyclopropyl)piperidin-1-yl)nicotinamide] |
| 583 | 58 | No IP | 0 | – | CN(C)C(=O)c1ccc(N2CCC([C@@H]3C[C@H]3CN(C)C(=O)[C@@](O)(c3ccccc3)C(F)(F)F)CC2)nc1Cl [Example 15-16, 2-chloro-N,N-dimethyl-6-(4-((1S,2R)-2-(((S)-3,3,3-trifluoro-2-hydroxy-N-methyl-2-phenylpropanamido)methyl)cyclopropyl)piperidin-1-yl)nicotinamide] |
